The test system of data set [1] is Pseudomonas aeruginosa CMCC10104. The class given is cell-based. The conditions noted are these: for MIC: Pseudomonas aeruginosa CMCC10104, microtiter dilution, LB medium without salt, 10^4-10^5 CFU/mL, 37°C, 24 h, OD620, Table 2. As to the method: (§1) All strains were cultured on Mueller-Hinton medium.
The subject of another data set is human erythrocytes. The data set can be described thus: Minimum hemolytic concentration (MHC). The class given is cell-based. As to the method: The MHCs were measured by the method as described in Chen et al.: peptides were added to 1% human erythrocytes in phosphate-buffered saline (0.08 mol/L NaCl, 0.043 mol/L Na2HPO4, 0.011 mol/L KH2PO4) and then kept at 37°C for 1 h in microtiter plates. The supernatants were collected by centrifugation (800 g), and the OD562 of each supernatant was determined. We chose a 0.1% Triton X-100 solution as the positive control because this solution causes the total release of hemoglobin. We defined the MHC as the highest peptide concentration that caused no detectable release of hemoglobin (the ratio of the OD562 for the peptide solution to the OD562 for the positive control should be less than 1%).

Data set [2] is described as follows: Circular dichroism, percentage helicity. As to conditions: CD, 100 μM peptide, 10 mM sodium phosphate pH 7.5, 50% trifluoroethanol. Format: physicochemical. As to the method: CD spectra were obtained with a Jasco J-710 instrument (Jasco, Tokyo, Japan) utilizing quartz cells with a 2 mm path length and peptide concentrations of 100 μM in a 10 mM sodium phosphate buffer with a pH of 7.5 containing 50% trifluoroethanol. Each spectrum was obtained from an average of 5 pairs of duplicates, and the percentage helicity of each peptide was determined.
The hydrophobic moments were determined with the HeliQuest web server, which can be used to evaluate amphipathicity. The percent helix values were determined based on CD spectra.

For data set [3], the system named is Gram-positive and Gram-negative bacteria and 22 clinical isolates. The conditions noted are these: overall statement. The source says:
(§2) Twenty-two clinical isolates and night standard laboratory strains were used in this study: 4 Acinetobacter baumannii, 4 Pseudomonas aeruginosa, 3 Staphylococcus epidermidis, and 6 Klebsiella pneumonia (Changhai Hospital, Shanghai, China); 5 methicillin-resistance Staphylococcus aureus (Ruijin Hospital, Shanghai, China); Staphylococcus aureus CMCC26003; Bacillus subtilis DB430;Bacillus pumilus CMCC63202; Micrococcus luteus CMCC28001; E. coli ATCC8099; Klebsiella pneumoniae CMCC46117;Salmonella paratyphi B CMCC50094; Pseudomonas aeruginosa CMCC10104; Micrococcus S1.634. In addition, Pseudomonas aeruginosa CMCC10104 was used during the design of the peptides for evaluating antimicrobial activities. All strains were cultured on Mueller-Hinton medium.
(§3) The antibacterial activities of the different peptides were evaluated using the minimum inhibitory concentration (MIC). The process followed the standard microtiter dilution method in LB medium without salt. Briefly, bacteria were grown overnight in LB at 37°C and diluted in the same medium. Then, 100 μL of the medium was dispensed into each well of a 96-well plate. The number of bacteria was between 10^4 and 10^5 CFU/mL. Serial dilutions of peptides were performed consecutively in each well in 10 μL. Plates were incubated at 37°C for 24 h; then, the OD620 was measured to determine the MIC of each peptide.

In data set [4] the test system is Micrococcus luteus CMCC28001. As to conditions: microtiter dilution, 37°C, 24 h, OD620.
Description: as §2, §3

Data set [5] concerns Salmonella paratyphi B CMCC50094. As to conditions: microtiter dilution, 37°C, 24 h, OD620.
Description: as §2, §3

Data set [6] relates to Bacillus pumilus CMCC63202. The conditions noted are these: microtiter dilution, 37°C, 24 h, OD620.
Description: as §2, §3

The subject of data set [7] is Staphylococcus epidermidis clinical isolates. The conditions noted are these: range over 3 clinical isolates.
Description: as §2, §3

The test system of data set [8] is Klebsiella pneumoniae CMCC46117. The conditions noted are these: microtiter dilution, 37°C, 24 h, OD620.
Description: as §2, §3

In data set [9] the test system is Klebsiella pneumonia clinical isolates. As to conditions: range over 6 clinical isolates.
Description: as §2, §3

The test system of the next data set is Bacillus subtilis DB430. The conditions noted are these: microtiter dilution, 37°C, 24 h, OD620.
Description: as §2, §3

For another data set, the system named is E. coli ATCC8099. As to conditions: microtiter dilution, 37°C, 24 h, OD620.
Description: as §2, §3

The test system of data set [10] is Staphylococcus aureus CMCC26003. The conditions noted are these: microtiter dilution, 37°C, 24 h, OD620.
Description: as §2, §3

The subject of another data set is MRSA clinical isolates. As to conditions: range over 5 clinical MRSA isolates.
Description: as §2, §3

In data set [11] the test system is Soluble wall Micrococcus S1.634. The conditions noted are these: microtiter dilution, 37°C, 24 h, OD620.
Description: as §2, §3

Data set [12] deals with Pseudomonas aeruginosa clinical isolates. The conditions noted are these: range over 4 clinical isolates.
Description: as §2, §3

Data set [13] concerns Acinetobacter baumannii clinical isolates. Format: cell-based. As to conditions: microtiter dilution, 37°C, 24 h, OD620. As to the method:
as §1

Setting [14] is: 1% human erythrocytes in PBS, 37°C, 1 h, OD562, highest concentration with no detectable hemoglobin release (<1% of 0.1% Triton X-100).
[15] abbreviates: MHC/MIC ratio, MHC human erythrocytes, MIC Pseudomonas aeruginosa.

We go through 22 substances from publication PMC3299254 (International Journal of Microbiology, 2012).

Where two headings read alike, the source gives them in different places. No end group written: not given here.

One may read the MIC as the lowest concentration found to suppress growth.

Regarding KWKSFIKKKTSKFLHSAKKF-NH2 [Peptide K9], the MIC in data set [1] was above 50 µg/mL.

With KWKSFIKKLTSKKLHSAKKF-NH2 [Peptide K13], the minimum inhibitory concentration (MIC) in data set [1] is above 50 µg/mL.

KWKSFIKKLTSKFLHSKKKF-NH2 [Peptide K17] came in with an MHC with human erythrocytes (setting [14]) above 500 µg/mL. The Therapeutic index in [1] (setting [15]) came out at 40. Also, the MIC in data set [1] worked out at 12.5 µg/mL.

In turn, KWKSFIKKSTSKFLHSAKKF-NH2 [Peptide S9] displayed an MHC with human erythrocytes (setting [14]) above 500 µg/mL. Also, the Therapeutic index in [1] (setting [15]) is given as 10. Further, in [1], the minimum inhibitory concentration (MIC) stood at 50 µg/mL.

As to “KWKSFIKKLASKFLHSAKKF-NH2 [Peptide A10, S16 derivative by single amino acid substitution]”, the “%Helix” value in data set [2] came out at 72.5%. Moreover, the MHC in the data set with human erythrocytes (setting [14]) was 250 µg/mL. The Therapeutic index in data set [1] (setting [15]) is recorded as 20. Besides, the MIC in data set [1] stood at 12.5 µg/mL.

For the substance KWKSFINKLTSKFLHSAKKF-NH2 [Peptide N7], in the data set on human erythrocytes (setting [14]), the MHC was above 500 µg/mL. For the same substance, the Therapeutic index in data set [1] (setting [15]) was 40. Besides, the MIC in data set [1] was 12.5 µg/mL.

For the substance “KWKSFIKKLTSKALHSAKKF-NH2 [Peptide A13, S16 derivative by single amino acid substitution]”, the “%Helix” value in [2] turned out to be 45.9%. In addition, the MHC in the data set on human erythrocytes (setting [14]) was above 500 µg/mL. The Therapeutic index in data set [1] (setting [15]) came to 80. The MIC in data set [1] turned out to be 6.25 µg/mL.

For KWKSFIKKLTDKFLHSAKKF-NH2 [Peptide D11], the MHC with human erythrocytes (setting [14]) was above 500 µg/mL. The Therapeutic index in data set [1] (setting [15]) turned out to be 20. For the same substance, the minimal inhibitory concentration (MIC) in [1] was 25 µg/mL.

With KWKSFIKKLTKKFLHSAKKF-NH2 [Peptide K11], the MICs entry in data set [3] was “less than 10 μg/mL”. For the same substance, the minimal inhibitory concentration (MIC) in [4] was 2 µg/mL; in data set [5] it was 2 µg/mL; in data set [6], 0.5 µg/mL; in data set [7] it was 0.5−8 μg/mL; in data set [8], 2 µg/mL; in data set [9], 0.5−4.0 μg/mL. Also, the MIC against Bacillus subtilis DB430 was 2 µg/mL; in the data set on E. coli ATCC8099, 0.5 µg/mL; in [10], 0.5 µg/mL; against MRSA clinical isolates it was 0.25−4 μg/mL; in [11], 1 µg/mL; in data set [12], 1.0−8.0 μg/mL. For the same substance, the minimal inhibitory concentration (MIC) in data set [1] stood at 1.6 µg/mL; in [13] (clinical isolate b-01), 0.8 µg/mL; in data set [13] (clinical isolate b-02), 3.125 µg/mL; in data set [13] (clinical isolate b-04) it was 1.6 µg/mL. For the same substance, the Therapeutic index in data set [1] (setting [15]) was 320.

In the case of KWNSFIKKLTSKFLHSAKKF-NH2 [Peptide N3], the MIC in [1] is 12.5 µg/mL.

Turning to KFKSFIKKLTSKFLHSAKKF-NH2 [Peptide F2], the MHC in the data set with human erythrocytes (setting [14]) was determined as 250 µg/mL. For the same substance, the Therapeutic index in data set [1] (setting [15]) stood at 20. In data set [1], the minimum inhibitory concentration (MIC) was determined as 12.5 µg/mL.

For KWKSFIKKRTSKFLHSAKKF-NH2 [Peptide R9], the MIC in [1] is above 50 µg/mL.

As for “KWKSFIKKLTLKFLHSKKKF-NH2 [Peptide L11, S16 derivative by single amino acid substitution]”, the MIC in data set [1] was above 50 µg/mL.

Consider KWKSFIKKAKTSFLHSAKKF-NH2 [Peptide A9], for which the MHC with human erythrocytes (setting [14]) is above 500 µg/mL. In addition, the Therapeutic index in data set [1] (setting [15]) is 20. In addition, in [1], the MIC turned out to be 25 µg/mL.

With “KWKSFIKKLTSKFLHSANKF-NH2 [Peptide N18, S16 derivative by single amino acid substitution]”, the “%Helix” value in data set [2] came to 37.2%. In addition, in the data set with human erythrocytes (setting [14]), the MHC is above 500 µg/mL. The Therapeutic index in [1] (setting [15]) is 80. Further, the minimal inhibitory concentration (MIC) in [1] stood at 6.25 µg/mL.

In the data set with human erythrocytes (setting [14]), KWKSFIKKLTSKFLHLAKKF-NH2 [CP-P] yielded an MHC of 250 µg/mL. Further, the Therapeutic index in data set [1] (setting [15]) was 20. The MIC in data set [1] came to 12.5 µg/mL.

As to KWKSFKKKLTSKFLHSAKKF-NH2 [Peptide K6], the minimum inhibitory concentration (MIC) in data set [1] was 12.5 µg/mL.

“KWKLFKKIPKFLHLAKKF-NH2 [Peptide P18, reference compound]”: the MHC in the data set on human erythrocytes was 250 µg/mL. Further, the Therapeutic index in data set [1] (CMCC10104, 24 h) turned out to be 10. Moreover, the MIC was 25 µg/mL in data set [1]; 6.25 µg/mL in [13] (clinical isolate b-01); 25 µg/mL in [13] (clinical isolate b-02); 12.5 µg/mL in data set [13] (clinical isolate b-03); 12.5 µg/mL in data set [13] (clinical isolate b-04).

The substance KWKSFIKKLLSKFLHSAKKF-NH2 [Peptide L10] registered an MHC in the data set with human erythrocytes (setting [14]) below 125 µg/mL. In addition, the Therapeutic index in data set [1] (setting [15]) is given as 10. In addition, in data set [1], the minimum inhibitory concentration (MIC) came out at 12.5 µg/mL.

KWKSFIKKLTSKFLHSADKF-NH2 [Peptide D18] registered an MHC in the data set with human erythrocytes (setting [14]) above 500 µg/mL. In addition, in data set [1] (setting [15]), the Therapeutic index came out at 20. Besides, the minimal inhibitory concentration (MIC) in data set [1] stood at 25 µg/mL.

The substance KWKSFIKKLTSKFLHSAKKN-NH2 [Peptide N20] gave an MHC in the data set with human erythrocytes (setting [14]) above 500 µg/mL. In data set [1] (setting [15]), the Therapeutic index was found to be 80. Moreover, in data set [1], the MIC amounted to 6.25 µg/mL.

KWKSFIKKLTSKFLHSAKKF-NH2 [Peptide S16] returned an MHC with human erythrocytes (setting [14]) above 500 µg/mL. Also, the Therapeutic index in data set [1] (setting [15]) is given as 160. The MIC came out at 3.125 µg/mL in [1]; 3.125 µg/mL in data set [13] (clinical isolate b-01); 6.25 µg/mL in data set [13] (clinical isolate b-02); 6.25 µg/mL in data set [13] (clinical isolate b-03); 3.125 µg/mL in data set [13] (clinical isolate b-04).
